Earlier results, collected in patent publication US20060045928A1, “Composition containing herbal medicine component for promoting absorption and production method thereof” (priority 2004, published 2006).

Settings: carrot fried with oil

absorption rate improvement, compared with eating raw carrot: 5 to 10 times
Compound: CC1=C(/C=C/C(C)=C/C=C/C(C)=C/C=C/C=C(C)/C=C/C=C(C)/C=C/C2=C(C)CCCC2(C)C)C(C)(C)CCC1 [β-carotene]
